Laboratory results as given in patent publication US8957033B2, “Inhibitor of sodium-dependent glucose transport protein and preparation method therefor and use thereof” (Beijing Prelude Pharm. SCI. & Tech. Co., Ltd., priority 2011, dated 2015).

How the values were obtained:
[1] = Stability test in vitro, human liver microsomes with NADPH; conditions: 2 μM, NADPH 1 mM, 37° C.
Description: (§4) 1) Master solution was prepared according to Table 1, and then the test compounds and control compound were added into the master solution, with the final concentration of these compounds in the reaction system being 2 μM. Then the mixed solution was preheated at 37° C. for 2 minutes.
(§5) 2) NADPH was added into the mixed solution with the final concentration of NADPH being 1 mM, and then the reaction system was incubated at 37° C. The blank control was also added with the same volume of ultrapure water instead of NADPH.
(§6) 3) 50 μL aliquots were taken out from the reaction system at 0, 15, 30, 45 and 60 minutes, and added with 3 volumes of cold methanol to terminate the reaction. The aliquot was centrifugated for 10 minutes under 16000 g to precipitate proteins. 100 μL of supernatant was used for LC/MS/MS analysis, to determine the amounts of the remaining test compounds and the control compound. The aliquots were detected in duplicate.
(§7) The instruments and conditions for LC analysis were as follows:
(§8) Shimadzu (Degasser DGU—20A3, Solvent Delivery Unit LC—20ADXR, System Controller CBM—20A, Column Oven CTO—10ASVP), CTC Analytics HTC PAL—XT System
(§9) Column: Phenomenex 5μ C 18 (2) (2.0×50 mm)
(§10) The instrument and conditions for MS/MS analysis were as follows: • AB API4000 LC/MS/MS instrument • Source: Turbo spray • Ionization mode: ESI • Type of scan: MRM • Collision gas: 6 L/min; curtain gas: 30 L/min; atomized gas: 50 L/min; auxiliary gas: 50 L/min; temperature: 500° C.; spray voltage: 4500 v.

[2] = Stability test in vitro, male rat liver microsomes with NADPH; conditions: 2 μM, NADPH 1 mM, 37° C.
Description: as §4, §5, §6, §7, §8, §9, §10

[3] = system: male SD rats; test: Urine glucose at end of glucose tolerance test (Example 6); assay type: in vivo; conditions: for Urine glucose: 10 mg/kg orally, urine collected at end of glucose tolerance test, Mean ± SD
Description: (§1) Preparation of the administrated drugs, and grouping and administration of the animals were the same as those in Example 5.
(§2) Before the test, the rats were fasted for 16 hours and then administrated orally with the blank solution or compounds. The blood glucose baseline level was measured at 8 hours after administration, then the rats in each group were administrated orally with 50% glucose aqueous solution in an amount of 2 g/kg. The blood samples (1 drop) were taken from tail veins of rats in each group at 15 minutes, 30 minutes, 1 hour and 2 hours after oral administration of glucose, and the blood glucose level was measured by using Accu-Chek Aviva system.
At the end of the test, urine of the rats in each group was collected, and then the urine glucose level was analyzed by using TOSHIBA TBA-40FR automatic biochemical analyzer.
(§3) Statistical analysis was conducted and the significance level was set to be P<0.05. The mean and standard deviation were calculated for all measurement parameters which were designed for study. One-way analysis of variance (ANOVA) was performed by software GraphPad Prism 5.0 after multiple comparisons among groups.

[4] = Pharmacokinetic test in vivo in SD rats; design: species or system male SD rats; conditions: 10 mg/kg; for AUC(0-inf) / AUC(0-t) / C0 / MRT / half-life / Tmax / bioavailability: male, rat, plasma; for bioavailability: read-out: F (oral bioavailability)
Description: Compound 1, compound 2 and compound 3 were respectively dissolved in blank solution (5% 1-methyl-2-pyrrolidinone, 20% PEG-400 and 20 mM sodium diphosphate) in a concentration of 10 g/L.
Experimental animals are male SD rats of 6-8 weeks old, with weight of 190-215 g, which were purchased from Beijing Vital River Laboratory Animal Technology Co., Ltd. The SD rats were randomly divided into seven groups based on body weight, each group containing three rats. Wherein group 1 is the blank control group in which the blank solution was administrated intravenously.
Before the pharmacokinetic test, the SD rats were fasted for 16 hours, and then administrated intravenously (1 mL/kg; 10 mg/kg) or orally (1 mL/kg; 10 mg/kg) with single dose of the compound or blank solution according to Table 4. After administration 200 uL blood samples were collected regularly through jugular vein puncture, wherein for the group of animals administered intravenously, blood samples were collected at 0 minute, 15 minutes, 30 minutes, 1 hour, 2 hours, 4 hours, 8 hours and 24 hours after administration; for the group of animals administered orally, blood samples were collected at 0 minute, 15 minutes, 30 minutes, 45 minutes, 75 minutes, 135 minutes, 4 hours, 8 hours and 24 hours after administration. The blood samples were collected in a sample tube with EDTA, and immediately centrifuged under 4000 rpm for 0.5 minutes at 4° C., and then the plasma was transferred to another sample tube and stored at −20° C.
The method and instruments for pharmacokinetics test of samples were as follows: • HPLC: Shimadzu (DGV-20A3, Serial NO: SSI-3-0536; LC-20AD Serial NO: • L20104551674 USB and L20104551673 USB), CTC Analytics HTC PAL System (Serial NO: 4353); • MS: AB API4000 Q Trap LC/MS/MS instrument (Serial NO. AR19020706) • Column: Phenomenex Luna 5μ C18 (2.0×50 mm) • Mobile phase: 100% acetonitrile (2 mM ammonium acetate) and 100% water (2 mM ammonium acetate) • Quantitative Method: internal standard method

[5] = system: male SD rats; test: Oral glucose tolerance test, glucose 15 minutes after administration (Example 5); assay type: in vivo; conditions: 10 mg/kg orally; for Blood glucose / ΔAUC: Mean ± SD; for Effect on blood glucose level (in words): compared with the blank control group
Description: Compound 1, compound 2 and compound 3 were respectively dissolved in blank solutions (5% 1-methyl-2-pyrrolidinone, 20% PEG-400 and 20 mM sodium diphosphate) in the concentration of 10 g/L.
Experimental animals are male SD rats of 6-8 weeks old, with weight of 190-215 g, which were purchased from Beijing Vital River Laboratory Animal Technology Co., Ltd. The SD rats were randomly divided into four groups based on body weight, each group containing three rats. Wherein group 1 is the blank control group in which the rats were administrated with the above blank solution.
Before the test, the rats were fasted for 16 hours and then administrated orally with the blank solution or compounds. The blood glucose baseline level was measured at 15 minutes after administration, then the rats in each group were administrated orally with 50% glucose aqueous solution in an amount of 2 g/kg. The blood samples (1 drop) were taken from tail veins of rats in each group at 15 minutes, 30 minutes, 1 hour and 2 hours after oral administration of glucose, and the blood glucose level was measured by using Accu-Chek Aviva system.
as §3

[6] = system: male SD rats; test: Oral glucose tolerance test, glucose 8 hours after administration (Example 6), blood glucose; assay type: in vivo; conditions: for Blood glucose / ΔAUC: 10 mg/kg orally, Mean ± SD; for Effect on blood glucose level (in words): glucose at 8 hours after administration, compared with the blank control group
Description: as §1, §2, §3

[7] = iv, administrated intravenously
[8] = glucose 2 g/kg 15 minutes after administration, 15 minutes after glucose
[9] = glucose 2 g/kg 15 minutes after administration, 30 minutes after glucose
[10] = glucose 2 g/kg 15 minutes after administration, 1 hour after glucose
[11] = glucose 2 g/kg 15 minutes after administration, 2 hours after glucose
[12] = glucose 2 g/kg 15 minutes after administration
[13] = time 0 (baseline 15 minutes after administration, before glucose 2 g/kg)
[14] = glucose 2 g/kg 8 hours after administration, 15 minutes after glucose
[15] = glucose 2 g/kg 8 hours after administration, 30 minutes after glucose
[16] = glucose 2 g/kg 8 hours after administration, 1 hour after glucose
[17] = glucose 2 g/kg 8 hours after administration, 2 hours after glucose
[18] = glucose 2 g/kg 8 hours after administration
[19] = time 0 (baseline 8 hours after administration, before glucose 2 g/kg)

Compound	Residual percentage of compounds in human liver microsome ([1]; sampling time 0 minute)	Residual percentage of compounds in human liver microsome ([1]; sampling time 15 minutes)	Residual percentage of compounds in human liver microsome ([1]; sampling time 30 minutes)	Residual percentage of compounds in human liver microsome ([1]; sampling time 45 minutes)	Residual percentage of compounds in human liver microsome ([1]; sampling time 60 minutes)	Residual percentage of compounds in rat liver microsome ([2]; sampling time 0 minute)	Residual percentage of compounds in rat liver microsome ([2]; sampling time 15 minutes)	Residual percentage of compounds in rat liver microsome ([2]; sampling time 30 minutes)	Residual percentage of compounds in rat liver microsome ([2]; sampling time 45 minutes)	Residual percentage of compounds in rat liver microsome ([2]; sampling time 60 minutes)	Urine glucose [3]	CI_obs ([4]; administrated intravenously)	Vss_obs ([4]; administrated intravenously)	AUC(0-inf) [4, 7]	AUC(0-t) [4, 7]	C0 [4, 7]	MRT [4, 7]	half-life [4, 7]	AUC(0-inf) ([4]; po, administrated orally)	AUC(0-t) ([4]; po, administrated orally)	further results
OC[C@H]1O[C@@H](c2ccc(Cl)c(Cc3ccc(OCC(F)(F)F)cc3)c2)[C@H](O)[C@@H](O)[C@@H]1O [Compound 2]	100.00%	80.84%	78.78%	76.73%	75.34%	100.00%	88.20%	94.51%	91.65%	88.27%	197.90 ± 56.27 mmol/L	1.59 mL/min/kg	1.18 L/kg	107000 ng·h/mL	87800 ng·h/mL	11300 ng/mL	7.35 h	9.8 h	193000 ng·h/mL	77300 ng·h/mL	Urine glucose level (in words) ([3]; compared to the blank control group, oral administration): significantly increased; C0 ([4]; po, administrated orally): 5090 ng/mL; Tmax ([4]; po, administrated orally): 1.25 h; half-life ([4]; po, administrated orally): 30 h; bioavailability ([4]; po, administrated orally): 88%; Blood glucose [5, 8]: 126.6 ± 26.11 mg/dL; Blood glucose [5, 9]: 143.4 ± 24.44 mg/dL; Blood glucose [5, 10]: 138.6 ± 17.17 mg/dL; Blood glucose [5, 11]: 97.2 ± 13.59 mg/dL; ΔAUC [5, 12]: 77.2 ± 20.44 mg·h/dL; Blood glucose [5, 13]: 85.8 ± 2.75 mg/dL; Effect on blood glucose level (in words) [5]: effect of lowering blood glucose level; Blood glucose [6, 14]: 103.20 ± 12.64 mg/dL; Blood glucose [6, 15]: 154.20 ± 2.75 mg/dL; Blood glucose [6, 16]: 141.00 ± 2.08 mg/dL; Blood glucose [6, 17]: 85.20 ± 1.04 mg/dL; ΔAUC [6, 18]: 115.00 ± 3.55 mg·h/dL; Blood glucose [6, 19]: 62.40 ± 2.75 mg/dL; Effect on blood glucose level (in words) [6]: effect of lowering blood glucose level
OC[C@H]1O[C@@H](c2ccc(Cl)c(C(F)(F)c3ccc(OCC(F)(F)F)cc3)c2)[C@H](O)[C@@H](O)[C@@H]1O [Compound 3]	100.00%	105.74%	98.43%	101.18%	97.89%	100.00%	99.00%	92.49%	97.25%	108.11%	0.10 ± 0.17 mmol/L	0.75 mL/min/kg	1.56 L/kg	260000 ng·h/mL	113000 ng·h/mL	6640 ng/mL	10.1 h	28.3 h	44700 ng·h/mL	20800 ng·h/mL	C0 ([4]; po, administrated orally): 1400 ng/mL; Tmax ([4]; po, administrated orally): 8 h; half-life ([4]; po, administrated orally): 20.4 h; bioavailability ([4]; po, administrated orally): 17.2%; Blood glucose [5, 8]: 143.4 ± 18.91 mg/dL; Blood glucose [5, 9]: 172.8 ± 25.01 mg/dL; Blood glucose [5, 10]: 148.2 ± 11.98 mg/dL; Blood glucose [5, 11]: 88.8 ± 17.11 mg/dL; ΔAUC [5, 12]: 87.6 ± 15.90 mg·h/dL; Blood glucose [5, 13]: 90.0 ± 13.59 mg/dL; Effect on blood glucose level (in words) [5]: effect of lowering blood glucose level; Blood glucose [6, 14]: 148.80 ± 9.06 mg/dL; Blood glucose [6, 15]: 198.60 ± 8.51 mg/dL; Blood glucose [6, 16]: 183.00 ± 12.25 mg/dL; Blood glucose [6, 17]: 128.40 ± 3.75 mg/dL; ΔAUC [6, 18]: 144.40 ± 18.72 mg·h/dL; Blood glucose [6, 19]: 90.00 ± 1.80 mg/dL; Effect on blood glucose level (in words) [6]: effect of lowering blood glucose level
